Test results taken from patent publication US10913732B2, “Furoxans as therapies for neurodegenerative disorders” (The University of Toledo, priority 2016, dated 2021).
Entries after “also recorded” stand apart in the source; their conditions may differ.

Columns and labels:
PC12 cells = assay: In vitro neuroprotection against oxygen glucose deprivation (OGD), MTT viability readout; assay type: cell-based; details: OGD 90 min, reoxygenation, furoxan 1, 10 or 25 μM, 24 hr
Method: FIGS. 3A-3C: Neuroprotection (FIG. 3A), MTT treatment was used to assess cell viability (FIG. 3B), and pCREB modulation (FIG. 3C) of furoxan compounds. Neuroprotection assay workflow: expose PC12 cells to oxygen glucose deprivation (OGD) for 90 min→reoxygenate and add furoxan (1, 10, or 25 μM)→incubate for 24 hr→MTT readout of viability. Data represented as mean and s.e.m. (n=3). *=p<0.05, **=p<0.01, ***=p<0.001 compared to vehicle control using one way ANOVA analysis with Dunnett's post-hoc test. Red dashed line indicates threshold of vehicle effects. For pCREB modulation, 31b (25 μM) was examined (PC-12 cells, 48 hr incubation) in the following: without insult, with OGD, L-NAME.
It has been shown that furoxans are protective against oxygen glucose deprivation (OGD), a commonly used cellular model of ischemic stroke. PC12 cells were submitted to OGD for 90 minutes followed by reoxygenation and treatment with varying concentrations of selected embodiments of compounds of Formula I (indicated in FIG. 3A). After 24 hr, MTT treatment was used to assess cell viability (FIG. 3B). […] It has been shown previously that 4-N-oxides release NO at a much slower rate than corresponding 2-N-oxides.

Male C57BL/6 mice = assay: Step-through passive avoidance (STPA), scopolamine-induced amnesia; assay type: in vivo
Method: FIGS. 4A-4B: STPA experimental timeline (FIG. 4A), and results of Male C57BL/6 mice administered either vehicle or 31b via i.p. injection at 60 min or 120 min prior to training in STPA (FIG. 4B). […] Memory retention was measured as latency to enter the dark compartment 24 h after training. Data represented as mean and s.e.m.
The STPA apparatus consisted of an acrylic box with an illuminated compartment connected to a darkened compartment by a small guillotine door. Mice were placed in the illuminated side and were trained against their natural tendency to translocate to the dark side using an aversive stimulus (shock via electrified floor grading). Memory consolidation is measured as the latency times to enter the dark compartment 24 hr after training.
All procedures were performed under the approved IACUC protocol #108451. Male C57BL/6 mice (Envigo), N=9 per group, were habituated at the animal facility for at least 14 days. Ear tags were applied and animals weighed. 2 hr prior to the drug adminstration the mice were individually acclimated to the illuminated compartment to assess tendency to enter the dark chamber (measured in seconds). In this phase no shock was be delivered. […] The mice were then administered either vehicle (95 [0.9% NaCl]:5 [DMSO]) or 31b (0.1, 1, 10, or 20 mg/kg) via i.p. injection (50 μL) at 1 h or 2 h prior to training. […] Mice were individually placed into the light compartment and upon translocation to the dark compartment the guiltine door closed and the mice were trained by delivering a mild adversive stimulus (0.5 mA) via the electrified floor grading of the dark chamber. Each mouse was held in the dark chamber for 30 seconds, then returned to their cage for 120 seconds before the second training session. […] Memory retention was measured 24 hours after training by placing the same mouse in the light chamber and measuring latency to enter the dark chamber (no aversive stimulus is delivered during the retention test). Data was analyzed by one way ANOVA analysis with Dunnett's post-hoc test.

[1] = Thiol reactivity by incubation with excess thiol, HPLC-UVvis; assay type: physicochemical
Method: FIGS. 5A-5B: Thiol reactivity was analyzed via incubations containing 31b (250 μM) in the presence or absence of excess (5 mM) cysteine (or N-acetylcysteine [NAc]) in PBS (50 mM, pH
7.4) at 37° C. (FIG. 5A). Incubations were placed in a temperature controlled HPLC autosampler and aliquots are analyzed by HPLC-UVvis periodically for 2-24 hr. Percent furoxan remaining was determined based on the area under the curve (AUC) of the HPLC UV-absorbance spectrum. Similarly, rat liver microsomes were incubated with 31b in the presence or absence of NADPH to determine microsomal stability (FIG. 5B). Warfarin and verapamil were used as slow and fast metabolizing controls.
Without wishing to be bound by theory, it is believed that furoxans require thiol attack to produce NO. […] Thiol reactivity of 31b was assessed via incubations with excess thiol (N-acetylcysteine [NAc]) at physiological pH and temperature using a temperature controlled HPLC autosampler. […]
HPLC method: solvents, H2O [0.1% FA]—solvent A; MeOH [0.1% FA]—solvent B; flow rate 1.0 mL/min. […] As described above, thiol reactivity was analyzed via incubations containing the furoxan (250 μM) in the presence or absence of excess (5 mM) cysteine (or N-acetylcysteine [NAc]) in PBS (50 mM, pH 7.4) at 37° C. Incubations were placed in a temperature controlled HPLC autosampler and aliquots were analyzed by HPLC-UVvis periodically for 2-24 hr. […]

[2] = system: CREB phosphorylation at Ser-133; assay: In vivo pharmacodynamics, hippocampal pCREB:tCREB by ELISA; details: scopolamine treated mice plus 31b 20 or 40 mg/kg ip

Structure (SMILES): CC1CCN(Cc2no[n+]([O-])c2-c2ccc(F)cc2)CC1 [31b]
- Neuroprotection against OGD (cell viability by MTT) (PC12 cells): concentration dependent protection; also recorded: outperform the corresponding 2-N-oxides
- Latency to enter the dark compartment (Male C57BL/6 mice; 20 mg/kg i.p. 2 hr prior to training, scopolamine 1 mg/kg i.p. 30 min prior to training, 24 hr after training): 237 s
- Reversal of scopolamine induced amnesia / memory impairment in STPA (Male C57BL/6 mice; mice, i.p., scopolamine 1 mg/kg): reverses scopolamine induced memory impairment; also recorded: capable of reversing scopolamine induced amnesia
- Stability in the presence of general cellular thiols, such as GSH and cysteine [1]: extremely stable
- Change in amount of furoxan with excess thiol ([1]; 250 μM, 5 mM N-acetylcysteine, PBS pH 7.4, 37° C., after 24 hr): no measurable change
- Hippocampal pCREB:tCREB ratio [2]: trends toward reversal
